Results as given in paper PMC3175392, “Noninvasive In Vivo Quantification of Neutrophil Elastase Activity in Acute Experimental Mouse Lung Injury” (International Journal of Molecular Imaging, 2011).
Where a name gives a salt, the structure may show the parent alone.

How the values were obtained:
[1] = biological target: T1, human PR3 (Homo sapiens, UniProt P24158); assay: Inhibition of NE680 cleavage by human PR3; type: biochemical; settings: NE680 0.5 μM as substrate; 30 min preincubation of enzyme with inhibitor, room temperature; read-out: IC50 on NE680 activation by human PR3
T1 construct: human neutrophil PR3 from Athens Research and Technology (Athens, GA); purchased Athens Research and Technology (Athens, GA); host or cells: human neutrophils
T1 sequence (P24158 28-256): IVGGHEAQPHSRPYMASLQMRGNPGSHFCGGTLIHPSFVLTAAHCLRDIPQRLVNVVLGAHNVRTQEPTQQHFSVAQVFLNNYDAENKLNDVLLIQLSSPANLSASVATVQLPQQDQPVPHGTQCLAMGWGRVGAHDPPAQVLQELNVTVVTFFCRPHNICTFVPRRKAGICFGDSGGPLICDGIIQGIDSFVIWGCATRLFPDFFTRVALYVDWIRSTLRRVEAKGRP
Description: Activation and protease selectivity of NE680 were determined with NE and closely related enzymes including PR3, Cat G, Cat B, and MMP-9. The assays were performed with 0.05 μM of enzyme and 0.5 μM NE680 in the optimized buffer and pH for each enzyme. Human NE was purchased from Innovative Research (Novi, MI), recombinant mouse NE, mouse Cat B, and active mouse Cat C from R and D Systems (Minneapolis, MN), human neutrophil PR3 from Athens Research and Technology (Athens, GA), and human neutrophil Cat G and recombinant human MMP-9 from BIOMOL International (Plymouth Meeting, PA). […] All the reactions were monitored at various time points at excitation/emission wavelengths of 663/690 nm with a cutoff at 665 nm using a fluorescence plate reader (Molecular Devices, San Leandro, CA). The released fluorescence is shown after subtracting background fluorescence of the agent without enzyme.
The IC50 against human NE and human PR3 were determined as described above using NE680 (0.5 μM). […]

[2] = biological target: T2, NE (Mus musculus, UniProt Q3UP87); assay: NE680 activation ex vivo in lung sections; settings: 1 μM NE680, 37°C, 5 h
T2 construct: from tissue; host or cells: lung of LPS/fMLP-challenged CD-1 mice (frozen sections or in vivo)
T2 sequence (Q3UP87 27-265): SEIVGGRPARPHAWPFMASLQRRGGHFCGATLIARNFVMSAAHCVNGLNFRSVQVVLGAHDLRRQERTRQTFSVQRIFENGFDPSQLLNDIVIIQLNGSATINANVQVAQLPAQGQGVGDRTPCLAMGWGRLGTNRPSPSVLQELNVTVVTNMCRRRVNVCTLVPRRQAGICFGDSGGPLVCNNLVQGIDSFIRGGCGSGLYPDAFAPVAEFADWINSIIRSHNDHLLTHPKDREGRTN
Text: To validate the specificity of NE680 activation by NE present in lungs, mice with lung inflammation and control healthy mice (which had not received NE680) were euthanized by CO2 inhalation and lungs were removed and snap frozen in OCT. […] Fluorescence, as a measure of agent activation, was captured under fluorescence microscopy using appropriate filters (Zeiss Axioskop 2 MOT Plus). DAPI was used as a nuclear counterstain.

[3] = biological target: T2, NE; assay: In vivo FMT imaging of NE680 activation in LPS/fMLP acute lung injury
Text: Acute lung inflammation was induced in mice according to published protocols with slight modifications. Male CD-1 mice were purchased from Charles River Laboratories (Wilmington, MA) and used when they reached 8–10 weeks of age. Mice were housed in environmentally controlled specific-pathogen-free conditions with water and low-fluorescence mouse chow (Harlan Teklad, Madison, WI). All animal experimental procedures were approved by PerkinElmer's Institutional Animal Care and Use Committee and were in accordance with veterinarian requirements. On day 1, mice were challenged intranasally (i.n.) with 100 μg of LPS (E. coli 111 : B4, Sigma, St. Louis, MO) solubilized in 40 μL PBS or PBS only. Eighteen hours later, mice received an intranasal instillation of the chemotactic peptide N-formyl-met-leu-phe (fMLP, Sigma, St. Louis, MO) at 200 nM in 40 μL PBS together with 4 nmoles of NE680.
For in vivo imaging, mice were first depilated using Nair and placed in a fluorescence molecular tomography (FMT) 2500 system (PerkinElmer, Boston, MA) imaging chamber to which is delivered a controlled amount of isoflurane/oxygen mixture keeping the mice anesthetized. Three-dimensional regions of interest (ROIs) were drawn around the chest area applying a universal threshold, equal to 40% of the mean concentration value of fluorescence in the LPS/fMLP mice (in nM). The total amount (in picomole) of fluorochrome was automatically calculated relative to internal standards generated with known concentrations of the appropriate fluorochrome. For each study, the mean fluorescence of the LPS/fMLP group was equaled to 100%, and then each mouse in that study was normalized accordingly. Shown are the grouped results of 3 studies, as the percentage of LPS/fMLP Lung Fluorescence (means ± S.E.M.).

[4] = test system: neutrophil influx; assay: Lung histology (H and E) after in vivo imaging, neutrophil influx; design: species or system mouse; settings: single treatment 5 mg/kg i.n. 18 h after LPS; H and E sections
[5] = test system: mouse NE; assay: In vitro activation and protease selectivity of NE680 (mouse NE versus related enzymes); type: biochemical; settings: at 5 h, 0.5 μM NE680, 0.05 μM enzyme, room temperature, optimized buffer for each enzyme
Description: Activation and protease selectivity of NE680 were determined with NE and closely related enzymes including PR3, Cat G, Cat B, and MMP-9. The assays were performed with 0.05 μM of enzyme and 0.5 μM NE680 in the optimized buffer and pH for each enzyme. Human NE was purchased from Innovative Research (Novi, MI), recombinant mouse NE, mouse Cat B, and active mouse Cat C from R and D Systems (Minneapolis, MN), human neutrophil PR3 from Athens Research and Technology (Athens, GA), and human neutrophil Cat G and recombinant human MMP-9 from BIOMOL International (Plymouth Meeting, PA). The reaction buffers were as follows: for human NE, 100 mM Tris (pH 7.5); for mouse NE, 50 mM Tris (pH 7.5), 1 M NaCl, 0.05% Brij-35; for Cat B, 25 mM MES (pH 5.0), 0.5 mM DTT (preactivation in 25 mM MES pH 5.0, 5 mM DTT for 15 min at room temperature); for MMP-9, 50 mM Tris (pH 7.5), 10 mM CaCl2, 150 mM NaCl, 0.05% Brij 35; for Cat G, 100 mM Tris (pH 7.5), 1.6 M NaCl; for human PR3, 100 mM Tris (pH 7.5), 500 mM NaCl. Mouse NE was activated by active mouse Cat C in 50 mM MES, 50 mM NaCl, pH5.5 at 37°C for 2 h. Reactions were carried out at room temperature in 250 μL in 96 well plates with black sides and bottom. All the reactions were monitored at various time points at excitation/emission wavelengths of 663/690 nm with a cutoff at 665 nm using a fluorescence plate reader (Molecular Devices, San Leandro, CA). The released fluorescence is shown after subtracting background fluorescence of the agent without enzyme.

[6] = Mouse plasma stability; type: in vitro ADME; settings: normal mouse plasma diluted 1:4 in PBS pH 7.40 with 1 mM EDTA, 37°C, 24 h; HPLC; data not shown
Description: The agent was incubated in normal mouse plasma (Innovative Research, Novi, MI) diluted 1 : 4 in PBS, pH 7.40 with 1 mM EDTA, at 37°C for 24 h. The stability of the agent was analyzed by HPLC.
(§1) HPLC analyses were performed on a Waters model 2695 (Waters Corporation, Milford, MA). The PDA, Waters model 2998, was set to scan from 225 nm to 800 nm. The wavelength corresponding to the absorbance maximum of the fluorophore, 675 nm, was extracted from the PDA trace. The fluorescence spectrophotometer was set to an excitation wavelength of 675 nm and emission was monitored at 693 nm. Samples were analyzed on a C4, 300 Å, 5 μm, 150 × 4.6 mm HPLC column (Phenomenex, Torrance, CA). The aqueous mobile phase contained 25 mM ammonium formate, pH 8.5. Samples were eluted with acetonitrile at a flow rate of 1 mL/min. A gradient of 15% to 85% organic provided sufficient resolution. Standards were prepared with NE680 (0–2.5 μM) in mouse plasma. Standard curves had correlation coefficients >0.98.

[7] = Pharmacokinetics in CD-1 mice after i.v. injection; type: in vivo, mouse; settings: female CD-1 mice, 2 nmol i.v. bolus in PBS, n = 3 mice per time point, HPLC of plasma; data not shown
Description: Twenty-four female retired breeder CD-1 mice (age 12–16 weeks, Charles River Laboratories, Wilmington, MA) received a bolus intravenous (i.v.) injection of NE680 (2 nmol in PBS). Terminal blood samples (n = 3 mice per time point) were collected by cardiac puncture from each mouse (following carbon dioxide asphyxiation). Plasma was collected by centrifugation (15,000 rpm for 10 min at 4°C) in EDTA-containing tubes. Aliquots (50 μL) of each plasma sample were placed in Eppendorf tubes. Cold methanol (150 μL) was added and the tubes were vortexed followed by centrifugation at 12,000 rpm and 4°C for 10 minutes. Approximately 110 μL of the supernatants were transferred to HPLC vials for analysis. Studies were conducted in accordance with and approved by PerkinElmer's IACUC Institutional Animal Care and Use Committee guidelines.
as §1, with “Samples were eluted with acetonitrile at a flow rate of 1 mL/min. A gradient of 15% to 85% organic provided sufficient resolution. Standards were prepared with NE680 (0–2.5 μM) in mouse plasma. Standard curves had correlation coefficients >0.98.” left out

[8] = Fluorescence biodistribution in excised organs; type: in vivo, mouse; settings: organs excised from 3 LPS/fMLP mice immediately after imaging, reflectance mode, mean fluorescence counts/energy
Description: Immediately following imaging, a cohort of mice were sacrificed (n = 3 per group), organs excised, and imaged in reflectance mode using the FMT 2500. The mean fluorescence intensity was measured after drawing an ROI around each organ. Data are expressed as mean fluorescence (in counts/energy) reported as means ± S.E.M.

[9] = 10 μm frozen sections, fluorescence microscopy

Compound	IC50 [1] [nM]	suppression of NE680 activation in ALI lung sections ([2]; sivelestat 40 nM)	suppression of NE680 activation in ALI lung sections ([2]; sivelestat 0.4 and 4 μM)	median concentration of lung fluorescence ([3]; ALI mice treated with sivelestat 5 mg/kg i.n. 15 min before fMLP and NE680, n = 12) [nM]	lung fluorescence as percentage of LPS/fMLP group ([3]; ALI mice treated with sivelestat 5 mg/kg i.n. 15 min before fMLP and NE680, mean ± S.E.M., n = 12, P = 0.0144) [%]	effect on neutrophil influx into the lung [4]	cleavage by mouse NE relative to Cat G ([5]; human Cat G) [fold]	cleavage by mouse NE relative to MMP-9 ([5]; human MMP-9) [fold]	cleavage by mouse NE relative to Cat B ([5]; mouse Cat B)	stability in mouse plasma [6]	half-life in plasma (t 1/2) [7] [h]	fluorescence (agent activation) in lung sections from control mice [2, 9]	fluorescence (agent activation) in lung sections from mice with ALI [2, 9]	average total fluorescence per lung ([3]; LPS/fMLP mice)	magnitude of signal in positive control animals across studies ([3]; LPS/fMLP mice, range between studies)	average total fluorescence per lung ([3]; control mice) [pmol fluorescence/lung]	median concentration of lung fluorescence ([3]; healthy controls, n = 12, 4 nmoles NE680 i.n., FMT 5 h later) [nM]	median concentration of lung fluorescence ([3]; mice with LPS/fMLP ALI, n = 16, 4 nmoles NE680 i.n., FMT 5 h later) [nM]	NE680 signal in lungs relative to all other tissues [8]
CC(C)(C)C(=O)Oc1ccc(S(=O)(=O)Nc2ccccc2C(=O)NCC(=O)O)cc1 [sivelestat, N-{2-[({4-[(2,2-dimethylpropanoyl)oxy]phenyl}sulfonyl)amino]benzoyl} glycine sodium salt, reference compound]	700	significantly inhibited	almost completely blocking	73	53.57 ± 10.34	not inhibited	–	–	–	–	–	–	–	–	–	–	–	–	–
PMAVVQSVP [NE680]	–	–	–	–	–	–	> 10	> 30	over 250 fold	optically stable and remains quenched	3	little or no apparent fluorescence	strong fluorescence	~ 100 pmol fluorescence/lung	30–190 pmols fluorescence/lung	< 5	0	164	30- to 170 fold
